For one assay, the target named is CacKam (Catenulispora acidiphila, UniProt C7Q5P8). Kind of assay: biochemical. The class given is binding.
A further assay concerns the target CarKam. Kind of assay: isothermal titration calorimetry, single-site fit. To be noted: 25 °C, 20 mM Tris pH 7.5, 10 mM magnesium acetate, 250 mM NH4Cl, 10 % glycerol, 6 mM β-mercaptoethanol, no 30S subunit. In kind it is binding, Candidatus Arthromitus sp. SFB-mouse-NYU.
Another assay deals with TcuKam (Thermomonospora curvata, UniProt D1A6K4). Kind of assay: biochemical. In kind it is binding.
The next assay concerns the target (UniProt K2DC64). The assay can be described thus: biochemical.

Molecules are shown by their SMILES. Read-outs that look alike come from different tables or passages of the source.

As for `C[S+](CC[C@H](N)C(=O)O)C[C@H]1O[C@@H](n2cnc3c(N)ncnc32)[C@H](O)[C@@H]1O` (stereo partly shown) [SAM], the Kd on CacKam is 44 µM; at CarKam (read-out: Kd (μM) / SAM) it was 24 µM; at TcuKam it was 13 µM; on (UniProt K2DC64), 75 µM.

As for `Nc1ncnc2c1ncn2[C@@H]1O[C@H](CSCC[C@H](N)C(=O)O)[C@@H](O)[C@H]1O` [SAH], the Kd is 2.7 µM on CacKam, 4.1 µM at CarKam (read-out: Kd (μM) / SAH) and 1.9 µM at TcuKam.

The values above are taken from article PMC4122235 (Biochimica et biophysica acta, 2014).
